From PMC11134391 (JACS Au, 2024)

How the values were obtained:
HDAC8 [1] = biological target: T1, HDAC8 (Homo sapiens, UniProt Q9BY41); experiment: HDAC inhibition assay; assay type: biochemical
T1 sequence (Q9BY41 1-377): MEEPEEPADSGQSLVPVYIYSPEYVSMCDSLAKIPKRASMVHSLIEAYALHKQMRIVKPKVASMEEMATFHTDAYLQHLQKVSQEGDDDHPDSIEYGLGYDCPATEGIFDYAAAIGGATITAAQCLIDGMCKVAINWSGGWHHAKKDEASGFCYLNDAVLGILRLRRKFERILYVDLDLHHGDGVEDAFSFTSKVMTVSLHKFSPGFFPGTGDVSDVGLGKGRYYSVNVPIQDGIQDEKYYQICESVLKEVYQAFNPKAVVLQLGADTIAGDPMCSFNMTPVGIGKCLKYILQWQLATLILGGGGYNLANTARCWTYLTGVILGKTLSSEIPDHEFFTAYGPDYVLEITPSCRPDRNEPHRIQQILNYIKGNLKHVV

HDAC6 [2] = biological target: T2, HDAC6 (Homo sapiens, UniProt Q9UBN7); experiment: HDAC inhibition assay; assay type: biochemical; settings: for selectivity for HDAC6 over HDAC8 (between the two enzymes): from Ki values
T2 sequence (Q9UBN7 1-1215): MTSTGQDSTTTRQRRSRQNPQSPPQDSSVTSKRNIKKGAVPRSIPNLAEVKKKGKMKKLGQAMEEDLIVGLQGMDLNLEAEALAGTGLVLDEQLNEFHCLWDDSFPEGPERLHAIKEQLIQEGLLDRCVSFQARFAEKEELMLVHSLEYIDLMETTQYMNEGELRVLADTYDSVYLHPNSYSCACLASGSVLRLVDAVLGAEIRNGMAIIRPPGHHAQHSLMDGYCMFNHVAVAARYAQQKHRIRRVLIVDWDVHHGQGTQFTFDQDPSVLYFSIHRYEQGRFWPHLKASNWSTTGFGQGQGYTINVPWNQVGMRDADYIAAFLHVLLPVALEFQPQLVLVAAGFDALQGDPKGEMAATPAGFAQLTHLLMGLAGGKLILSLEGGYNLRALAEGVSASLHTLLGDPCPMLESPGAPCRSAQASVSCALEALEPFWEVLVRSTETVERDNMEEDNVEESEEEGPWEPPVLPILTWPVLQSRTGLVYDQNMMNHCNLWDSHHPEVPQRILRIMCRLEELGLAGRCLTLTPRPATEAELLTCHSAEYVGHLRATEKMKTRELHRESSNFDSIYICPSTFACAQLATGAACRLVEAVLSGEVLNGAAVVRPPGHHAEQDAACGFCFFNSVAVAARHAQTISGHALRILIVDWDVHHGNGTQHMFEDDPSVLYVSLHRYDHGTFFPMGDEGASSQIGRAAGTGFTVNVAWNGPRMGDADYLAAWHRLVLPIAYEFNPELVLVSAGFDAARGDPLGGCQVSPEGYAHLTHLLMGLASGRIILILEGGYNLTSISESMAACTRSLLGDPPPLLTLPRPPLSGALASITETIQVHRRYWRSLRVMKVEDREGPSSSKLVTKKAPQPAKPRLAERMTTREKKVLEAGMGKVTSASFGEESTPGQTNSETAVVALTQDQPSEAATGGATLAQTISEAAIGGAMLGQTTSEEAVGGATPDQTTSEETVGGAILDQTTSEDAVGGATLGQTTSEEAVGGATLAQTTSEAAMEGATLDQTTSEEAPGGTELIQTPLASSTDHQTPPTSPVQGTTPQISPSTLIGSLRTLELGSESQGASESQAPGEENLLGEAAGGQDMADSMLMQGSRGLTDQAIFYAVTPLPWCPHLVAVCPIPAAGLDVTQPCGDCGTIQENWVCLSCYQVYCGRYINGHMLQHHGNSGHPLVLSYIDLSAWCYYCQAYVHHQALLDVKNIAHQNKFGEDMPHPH

HDAC6 [3] = biological target: T2, HDAC6; experiment: HDAC inhibition assay with preincubation, HDAC6; assay type: biochemical; settings: preincubation 0, 0.5, 1 or 2 h at 37 °C
[4] = test system: lysine acetylation (α-tubulin, H3K18, H3K27, and SMC3) in HEK293T cells; experiment: Protein acetylation assay; assay type: cell-based, human; settings: 5 h, 1 or 10 μM, Western blot
HDAC11 = biological target: T3, HDAC11 (Homo sapiens, UniProt Q96DB2); experiment: HDAC inhibition assay with preincubation, HDAC11; assay type: biochemical; settings: preincubation 0, 0.5, 1 or 2 h at 37 °C
T3 sequence (Q96DB2 1-347): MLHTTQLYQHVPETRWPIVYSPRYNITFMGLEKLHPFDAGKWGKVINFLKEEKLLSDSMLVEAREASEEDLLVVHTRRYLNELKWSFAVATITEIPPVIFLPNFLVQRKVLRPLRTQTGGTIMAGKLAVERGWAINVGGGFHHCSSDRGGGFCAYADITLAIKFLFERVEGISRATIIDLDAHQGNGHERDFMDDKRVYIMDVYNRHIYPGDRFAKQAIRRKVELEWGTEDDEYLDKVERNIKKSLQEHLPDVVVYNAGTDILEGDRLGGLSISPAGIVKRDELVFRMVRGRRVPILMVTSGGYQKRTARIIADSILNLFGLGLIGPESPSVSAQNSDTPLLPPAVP

HDAC8 [5] = biological target: T1, HDAC8; experiment: Cellular thermal shift assay; assay type: cell-based; settings: HEK293T cells, 10 µM, 2 h

COc1ccc(OS(=O)(=O)Oc2cccc(C(=O)NO)c2)cc1OC [A17]
Ki (HDAC8 [1]): 22 nM

O=C(NO)c1cc(F)cc(OS(=O)(=O)Oc2ccccc2)c1 [C1]
selectivity for HDAC6 over HDAC8 (between the two enzymes) (HDAC6 [2]): 20 fold | change of IC50 upon preincubation with HDAC6 (HDAC6 [3]): did not observe any decrease in IC50 value upon preincubation | acetylation of α-tubulin compared to DMSO control [4]: significant upregulation

Cc1c(OS(=O)(=O)Oc2ccc(Oc3ccccc3)cc2)cccc1C(=O)NO [D21]
change of IC50 upon preincubation with HDAC11 (HDAC11): did not observe any decrease in IC50 value upon preincubation

O=C(NO)c1cncc(OS(=O)(=O)Oc2ccc3ccccc3c2)c1 [E24]
Ki (HDAC6 [2]): 14 nM | selectivity for HDAC6 over HDAC8 (between the two enzymes) (HDAC6 [2]): ~20 fold | change of IC50 upon preincubation with HDAC6 (HDAC6 [3]): did not observe any decrease in IC50 value upon preincubation | acetylation of α-tubulin compared to DMSO control [4]: significant upregulation | thermal shift of HDAC8 relative to DMSO control (HDAC8 [5]): no shift
